Laboratory results taken from patent US11135234B2, “Effective aminoglycoside antibiotic for multidrug-resistant bacteria” (MICROBIAL CHEMISTRY RESEARCH FOUNDATION, priority 2015, dated 2021).
≈ marks a conversion by molar mass, not a printed value.

Legend:
[1] = system: A. baumannii ATCC BAA-1710; assay: MIC, agar plate dilution method, A. baumannii ATCC BAA-1710; type: cell-based, Acinetobacter baumannii; settings: for minimal inhibitory concentration (MIC): A. baumannii ATCC BAA-1710, MDRA; for MIC: Acinetobacter baumannii, ATCCBAA1710, A. baumannii ATCC BAA-1710, MDRA, read-out: minimal inhibitory concentration (MIC)
Description: (§1) As for the representative compounds of a new aminoglycoside antibiotic of the present invention described in Examples, the minimal inhibitory concentration (MIC, μg/mL) was measured for various assay strains of bacteria using an agar plate dilution method in accordance with the method described in the Japan Society of Chemotherapy.

P. aeruginosa PAO1/GN315 = assay: MIC, agar plate dilution method, P. aeruginosa PAO1/GN315; type: cell-based, Pseudomonas aeruginosa; settings: for minimal inhibitory concentration (MIC): P. aeruginosa PAO1/GN315, AMK-resistant; for MIC: Pseudomonas aeruginosa, read-out: minimal inhibitory concentration (MIC), P. aeruginosa PAO1/GN315, AMK-resistant
Description: as §1

S. aureus RN4220 = assay: MIC, agar plate dilution method, S. aureus RN4220; type: cell-based, Staphylococcus aureus; settings: for minimal inhibitory concentration (MIC): S. aureus RN4220, Sensitive bacterium; for MIC: Staphylococcus aureus, RN4220, S. aureus RN4220, Sensitive bacterium, read-out: minimal inhibitory concentration (MIC)
Description: as §1

E. faecium ATCC19434 = assay: MIC, agar plate dilution method, E. faecium ATCC19434; type: cell-based, Enterococcus faecium; settings: for minimal inhibitory concentration (MIC): E. faecium ATCC19434; for MIC: Enterococcus faecium, ATCC19434, E. faecium ATCC19434, read-out: minimal inhibitory concentration (MIC)
Description: as §1

S. marcescens TH-0447 = assay: MIC, agar plate dilution method, S. marcescens TH-0447; type: cell-based, Serratia marcescens; settings: for minimal inhibitory concentration (MIC): S. marcescens TH-0447, AMK-resistant; for MIC: Serratia marcescens, TH0447, S. marcescens TH-0447, AMK-resistant, read-out: minimal inhibitory concentration (MIC)
Description: as §1

S. aureus RN4220/pMS520 = assay: MIC, agar plate dilution method, S. aureus RN4220/pMS520; type: cell-based, Staphylococcus aureus; settings: for minimal inhibitory concentration (MIC): S. aureus RN4220/pMS520, MRSA; for MIC: Staphylococcus aureus, MRSA, read-out: minimal inhibitory concentration (MIC), S. aureus RN4220/pMS520, MRSA
Description: as §1

S. aureus MF490 = assay: MIC, agar plate dilution method, S. aureus MF490; type: cell-based, Staphylococcus aureus; settings: for minimal inhibitory concentration (MIC): S. aureus MF490, MRSA; for MIC: Staphylococcus aureus, MRSA, read-out: minimal inhibitory concentration (MIC)
Description: as §1

[2] = system: K. pneumoniae ATCC BAA-1705; assay: MIC, agar plate dilution method, K. pneumoniae ATCC BAA-1705; type: cell-based, Klebsiella pneumoniae; settings: for minimal inhibitory concentration (MIC): K. pneumoniae ATCC BAA-1705, KPC-producing strain; for MIC: Klebsiella pneumoniae, ATCCBAA1705, K. pneumoniae ATCC BAA-1705, KPC-producing strain, read-out: minimal inhibitory concentration (MIC)
Description: as §1

P. aeruginosa PAO1 = assay: MIC, agar plate dilution method, P. aeruginosa PAO1; type: cell-based, Pseudomonas aeruginosa; settings: for minimal inhibitory concentration (MIC): P. aeruginosa PAO1, Sensitive bacterium; for MIC: Pseudomonas aeruginosa, PAO1, P. aeruginosa PAO1, Sensitive bacterium, read-out: minimal inhibitory concentration (MIC)
Description: as §1

E. coli JM109/pMW218 = assay: MIC, agar plate dilution method, E. coli JM109/pMW218; type: cell-based, Escherichia coli; settings: for minimal inhibitory concentration (MIC): E. coli JM109/pMW218, Sensitive bacterium; for MIC: Escherichia coli, JM109/PMW218, E. coli JM109/pMW218, Sensitive bacterium, read-out: minimal inhibitory concentration (MIC)
Description: as §1

S. marcescens GN6944 = assay: MIC, agar plate dilution method, S. marcescens GN6944; type: cell-based, Serratia marcescens; settings: S. marcescens GN6944, GM-resistant; for MIC: Serratia marcescens, read-out: minimal inhibitory concentration (MIC)
Description: as §1

P. aeruginosa MSC01035 = assay: MIC, agar plate dilution method, P. aeruginosa MSC01035; type: cell-based, Pseudomonas aeruginosa; settings: P. aeruginosa MSC01035, ABK-resistant; for MIC: Pseudomonas aeruginosa, read-out: minimal inhibitory concentration (MIC)
Description: as §1

P. aeruginosa MSC17707 = assay: MIC, agar plate dilution method, P. aeruginosa MSC17707; type: cell-based, Pseudomonas aeruginosa; settings: for minimal inhibitory concentration (MIC): P. aeruginosa MSC17707, AMK-resistant; for MIC: Pseudomonas aeruginosa, MSC17707, P. aeruginosa MSC17707, AMK-resistant, read-out: minimal inhibitory concentration (MIC)
Description: as §1

[3] = system: K. pneumoniae ATCC BAA-2146; assay: MIC, agar plate dilution method, K. pneumoniae ATCC BAA-2146; type: cell-based, Klebsiella pneumoniae; settings: for minimal inhibitory concentration (MIC): K. pneumoniae ATCC BAA-2146, NDM-producing strain; for MIC: Klebsiella pneumoniae, ATCCBAA2146, K. pneumoniae ATCC BAA-2146, NDM-producing strain, read-out: minimal inhibitory concentration (MIC)
Description: as §1

| Compound | minimal inhibitory concentration (MIC) [1] [µg/mL] | minimal inhibitory concentration (MIC) (P. aeruginosa PAO1/GN315) [µg/mL] | minimal inhibitory concentration (MIC) (S. aureus RN4220) [µg/mL] | minimal inhibitory concentration (MIC) (E. faecium ATCC19434) [µg/mL] | minimal inhibitory concentration (MIC) (S. marcescens TH-0447) [µg/mL] | minimal inhibitory concentration (MIC) (S. aureus RN4220/pMS520) [µg/mL] | minimal inhibitory concentration (MIC) (P. aeruginosa MSC17707) [µg/mL] | MIC [1] [µg/mL] | MIC (P. aeruginosa PAO1/GN315) [µg/mL] | MIC (S. aureus RN4220) [µg/mL] | MIC (E. faecium ATCC19434) [µg/mL] | MIC (S. marcescens TH-0447) [µg/mL] | MIC (S. aureus RN4220/pMS520) [µg/mL] | MIC (S. aureus MF490) [µg/mL] | MIC [2] [µg/mL] | MIC (P. aeruginosa PAO1) [µg/mL] | MIC (E. coli JM109/pMW218) [µg/mL] | MIC (S. marcescens GN6944) [µg/mL] | MIC (P. aeruginosa MSC01035) [µg/mL] | MIC [3] [µg/mL] | further results |
| --- | --- | --- | --- | --- | --- | --- | --- | --- | --- | --- | --- | --- | --- | --- | --- | --- | --- | --- | --- | --- | --- |
| 4″-N-(trans-1,4-4-aminocyclohexyl)apramycin [Compound A4-g] | 32 | 16 | 4 | 32 | 16 | 4 | 32 |  |  |  |  |  |  |  |  |  |  |  |  |  | minimal inhibitory concentration (MIC) (S. aureus MF490): 16 µg/mL; minimal inhibitory concentration (MIC) [2]: 2 µg/mL; minimal inhibitory concentration (MIC) (P. aeruginosa PAO1): 16 µg/mL; minimal inhibitory concentration (MIC) (E. coli JM109/pMW218): 2 µg/mL; minimal inhibitory concentration (MIC) (S. marcescens GN6944): 16 µg/mL; minimal inhibitory concentration (MIC) (P. aeruginosa MSC01035): 32 µg/mL; minimal inhibitory concentration (MIC) [3]: 2 µg/mL |
| CNC1C(O[C@H]2OC(CO)[C@@H](NC(=O)CN)[C@H](O)C2O)O[C@H]2CC(N)[C@@H](O[C@@H]3C(N)C[C@@H](N)C(O)[C@H]3O)OC2C1O (single isomer, unassigned) [Compound V1-a, 4″-N-glycylapramycin] | 8 (≈ 13.4 µM) | 4 (≈ 6.7 µM) | 4 (≈ 6.7 µM) | 32 (≈ 53.6 µM) | 8 (≈ 13.4 µM) | 4 (≈ 6.7 µM) | 8 (≈ 13.4 µM) |  |  |  |  |  |  |  |  |  |  |  |  |  | minimal inhibitory concentration (MIC) (S. aureus MF490): 16 µg/mL (≈ 26.8 µM); minimal inhibitory concentration (MIC) [2]: 2 µg/mL (≈ 3.35 µM); minimal inhibitory concentration (MIC) (P. aeruginosa PAO1): 4 µg/mL (≈ 6.7 µM); minimal inhibitory concentration (MIC) (E. coli JM109/pMW218): 2 µg/mL (≈ 3.35 µM); minimal inhibitory concentration (MIC) (S. marcescens GN6944): 8 µg/mL (≈ 13.4 µM); minimal inhibitory concentration (MIC) (P. aeruginosa MSC01035): 4 µg/mL (≈ 6.7 µM); minimal inhibitory concentration (MIC) [3]: 2 µg/mL (≈ 3.35 µM) |
| CNC1C(O[C@H]2OC(CO)[C@@H](NC(=O)CN)[C@H](O)C2O)O[C@H]2CC(N)[C@@H](O[C@@H]3C(N)C[C@@H](N)C(O)[C@H]3O)OC2C1O (single isomer, unassigned) [Compound V1-i, 5-epi-4″-N-glycylapramycin] |  |  |  |  |  |  | 2 (≈ 3.35 µM) | 4 (≈ 6.7 µM) | 4 (≈ 6.7 µM) | 2 (≈ 3.35 µM) | 16 (≈ 26.8 µM) | 8 (≈ 13.4 µM) | 2 (≈ 3.35 µM) | 8 (≈ 13.4 µM) | 2 (≈ 3.35 µM) | 2 (≈ 3.35 µM) | 1 (≈ 1.68 µM) | 8 (≈ 13.4 µM) | 4 (≈ 6.7 µM) | 1 (≈ 1.68 µM) |  |
| NCC[C@H](O)C(=O)N[C@@H]1C[C@H](N)[C@@H](O[C@H]2O[C@H](CN)CC[C@H]2N)[C@H](O)[C@H]1O[C@H]1O[C@H](CO)[C@@H](O)[C@H](N)[C@H]1O [ABK, arbekacin, reference compound] |  |  |  |  |  |  |  | 32 (≈ 57.9 µM) | 8 (≈ 14.5 µM) | 1 (≈ 1.81 µM) | 8 (≈ 14.5 µM) | 64 (≈ 116 µM) | 1 (≈ 1.81 µM) | 64 (≈ 116 µM) | 16 (≈ 29 µM) | 2 (≈ 3.62 µM) | 0.5 (≈ 0.905 µM) | 8 (≈ 14.5 µM) | > 64 | > 64 | MIC (P. aeruginosa MSC17707): 4 µg/mL (≈ 7.24 µM) |
| NCC[C@H](O)C(=O)N[C@@H]1C[C@H](N)[C@@H](O[C@H]2O[C@H](CN)[C@@H](O)[C@H](O)[C@H]2O)[C@H](O)[C@H]1O[C@H]1O[C@H](CO)[C@@H](O)[C@H](N)[C@H]1O [AMK, amikacin, reference compound] |  |  |  |  |  |  |  | 64 (≈ 109 µM) | 64 (≈ 109 µM) | 2 (≈ 3.42 µM) | 32 (≈ 54.6 µM) | > 64 | 64 (≈ 109 µM) | > 64 | 32 (≈ 54.6 µM) | 2 (≈ 3.42 µM) | 0.5 (≈ 0.854 µM) | 8 (≈ 13.7 µM) | > 64 | > 64 | MIC (P. aeruginosa MSC17707): 32 µg/mL (≈ 54.6 µM) |
